What was measured:
[1] = system: primary murine astrocytes; experiment: SRB toxicity assay on primary murine astrocytes; type: cell-based, murine (C57BL/6); conditions: Mus musculus, Astrocyte
Protocol: (§1) The murine (C57BL/6) glioma cell line, GL-26, which is highly tumorigenic in the C57BL/6 mice. GL-26 cells were cultured in DMEM/F12 supplemented with 10% FCS, 1% penicillin/streptomycin, 1% L-glutamine and 1% non-essential amino acids. Human foreskin fibroblasts (HFFs) were cultured in DMEM/F12 supplemented with 10% FCS and 1% penicillin/streptomycin. Primary murine astrocytes were purified from C57BL/6 neonate brains and cultured in DMEM/F12 supplemented with 10% FCS, 1% non-essential amino acids, 1% Lglutamine, 50 IU/ml penicillin, […] and 10 mM Hepes buffer.
(§2) The sulforhodamine B (SRB) cytotoxicity assays were adapted from Skehan et al. (22). Briefly, either HFF, primary astrocytes or GL-26 cells were plated in 96-well plates at a density of 4,000 cells/well in a volume of 100 µL overnight at 37° C. and 5% CO2. DMSO stock solutions of SBP, MSBP or TMZ were used at a concentration range of 0.1-25 μM for 48 hr before the supernatant was discarded and the cells were fixed for 1 hr with 10% cold trichloroacetic acid (100 μL, per well). Cells used in recovery assay received fresh media for 48 hrs following the 48 hr drug incubation. The plate was then washed 5 times with de-ionized water, air dried, and stained with 0.4% SRB for 10 min (50 μL, per well). After washing 5 times in 1% acetic acid and air-drying, bound SRB was dissolved in 10 mM unbuffered Tris base (pH 10.5; 100 μL, per well). Bound SRB was then read by absorbance at 492 nm on a SpectraMax plate reader (Molecular Devices). The percent survival was then calculated based upon the absorbance values relative to control wells (0 μM SBP in 0.1% DMSO).

[2] = system: GL-26 glioma cells; experiment: TUNEL apoptosis staining of cultured cells; type: cell-based, murine (C57BL/6)
Protocol: Histology: For brain tumor histology, mice were perfused intracardially with 4% formaldehyde in Na+/K+ balanced PBS and brains were extracted, incubated in 4% formaldehyde overnight followed by 30% sucrose in Na+/K+ balanced PBS. Brains were flash frozen in isopentane, embedded in optimal cutting temperature compound (OCT), cryosectioned in coronal sections (12 μm) and stained with hematoxylin and eosin. Another cohort of equivalently drug-treated mice was used for liver, lung and gut histology. The mice were then sacrificed on day 19, and the liver, lung and gut tissues were collected and placed in 4% formaldehyde in Na+/K+ balanced PBS overnight. The organs were then placed for 48 hrs in 70% EtOH before paraffin embedding and sectioning at 6 μm. Sections were then stained with hematoxylin and eosin and pathology was assessed blindly and independently by a trained pathologist. A TUNEL staining kit was obtained from TREVIGEN (NeuroTACS II In Situ Apoptosis Detection Kit, Cat#4823-30-K) and used for both ex-vivo slices and in-vitro staining according to manufacturers instructions.

[3] = system: GL-26 glioma cells; experiment: Propidium iodide cell cycle analysis by flow cytometry; type: cell-based, murine (C57BL/6); conditions: SBP 48 hours
Protocol: GL-26 cells were plated at 4000 cells/well in a 96 well plate in GL-26 media (DMEM/F12 supplemented with 10% FCS, 1% penicillin/streptomycin, 1% L-glutamine and 1% non-essential amino acids). The cells were treated 1 day post-plating with 0.1-25 μM SBP for 48 hours. The cells were then detached with Trypsin/EDTA (Cellgro), washed and resuspended at 500,000 cells/ml in ice cold Na+/K+ balanced PBS and fixed by gently adding 70% ethanol and incubating for 2 hrs at 4° C. GL-26 cells were then resuspended in 300-500 μl PI/Triton X-100 staining solution: 10 ml of 0.1% (v/v) Triton X-100 (Sigma) in Na+/K+ balanced PBS with 2 mg DNAse-free RNAse A (Sigma) and 0.40 ml of 500 μg/ml PI (Roche). The stain was allowed to incubate at 37° C. for 15 minutes before acquisition on a BD FacsCanto II flow cytometer.

[4] = system: GL-26 murine glioma cells; experiment: SRB growth assay of SBP and gold complexes on GL-26 (Example 4); type: cell-based, murine (C57BL/6); conditions: Mus musculus, GL26, 48 hr, read-out: concentration inhibiting GL-26 by 50%
Protocol: as §1, with “mice, was used.” for “mice.”, “L-glutamine,” for “Lglutamine,”
as §2, with “al (21).” for “al. (22).”, “μL” for “μL,”, “The plate was then washed 5 times with de-ionized water, air dried, and stained with 0.4% SRB for 10 min (50 μL, per well). After washing 5 times in 1% acetic acid and air-drying, bound SRB was dissolved in 10 mM unbuffered Tris base (pH 10.5; 100 μL, per well).” left out

[5] = system: human foreskin fibroblasts (HFFs); experiment: SRB toxicity assay on human foreskin fibroblasts; type: cell-based; conditions: Fibroblast
Protocol: as §1, §2

Work on `CCC(C)c1ccc2ccc3ccc(C(C)CC)nc3c2n1` (stereo not drawn) [Compound 1, 2,9-di-sec-butyl-1,10-phenanthroline] yielded an inhibition at 6 µM ([1]; 6 μM, 48 hours, read-out: astrocyte growth inhibition) of 18%, an inhibition at 25 µM ([1]; 25 μM, 48 hours, read-out: astrocyte growth inhibition) of 37.3 ± 0.9% and an IC50 ([1]; not reached at 25 μM, read-out: IC50 on non-cancerous glial cells (astrocytes)) greater than 25 µM. For the same molecule, the “apoptosis (TUNEL) in cultured GL-26 cells” value [2] was “kills GL-26 cells by inducing apoptosis”, the “cell cycle effect (propidium iodide)” value [3] was “not arrested in the G1 phase” and the IC50 [4] was 0.8 to 1.6 µM. The inhibition at 6 µM ([5]; 6 μM, 48 hours, read-out: HFF growth inhibition) was roughly 20%, the inhibition at 25 µM ([5]; 25 μM, 48 hours, read-out: HFF growth inhibition) was 36.9 ± 1.3% and the IC50 ([5]; not reached at 25 μM, read-out: IC50 on non-cancerous human fibroblast cells) was greater than 25 µM.

Reference: US20150125550A1, “APPLICATION OF 2,9-DI-SEC-BUTYL-1,10-PHENANTHROLINE AS A GLIOBLASTOMA TUMOR CHEMOTHERAPY” (priority 2013, published 2015)
